Measurements as given in ChEMBL document CHEMBL5724914, “Linking interpersonal differences in gut microbiota composition and drug biotransformation activity” (2024).

How the values were obtained:
[1] = human gut metagenome, 24 h, 2 µM
[2] = human gut metagenome, 24 h, 2 µM; remark: listed apart in the source
[3] = human gut metagenome, 24 h, 2 µM; remark: listed apart in the source
[4] = The drug is tested on WLS-098 corresponding to human gut metagenome with ENA study accession number: PRJEB37062 and ENA sample accession number: ERS12561754 for biotransformation under anaerobic condition. The drug concentrations were measured over 9 timepoints collected between 0 and 24 hours of incubation by liquid-chromatography-coupled mass spectrometry (LC–MS); settings: 2 µM
[5] = human gut metagenome, 24 h, 2 µM; remark: listed apart in the source
[6] = The drug is tested on Z-001 corresponding to mouse gut metagenome with ENA study accession number: PRJEB37062 and ENA sample accession number: ERS12561801 for biotransformation under anaerobic condition. The drug concentrations were measured over 9 timepoints collected between 0 and 24 hours of incubation by liquid-chromatography-coupled mass spectrometry (LC–MS); settings: 2 µM
[7] = The drug is tested on Z-019 corresponding to rat gut metagenome with ENA study accession number: PRJEB37062 and ENA sample accession number: ERS12561818 for biotransformation under anaerobic condition. The drug concentrations were measured over 9 timepoints collected between 0 and 24 hours of incubation by liquid-chromatography-coupled mass spectrometry (LC–MS); settings: 2 µM
[8] = The drug is tested on WLS-069 corresponding to human gut metagenome with ENA study accession number: PRJEB37062 and ENA sample accession number: ERS12561748 for biotransformation under anaerobic condition. The drug concentrations were measured over 9 timepoints collected between 0 and 24 hours of incubation by liquid-chromatography-coupled mass spectrometry (LC–MS); settings: 2 µM
[9] = The drug is tested on Z-007 corresponding to rat gut metagenome with ENA study accession number: PRJEB37062 and ENA sample accession number: ERS12561807 for biotransformation under anaerobic condition. The drug concentrations were measured over 9 timepoints collected between 0 and 24 hours of incubation by liquid-chromatography-coupled mass spectrometry (LC–MS); settings: 2 µM
[10] = human gut metagenome, 24 h, 2 µM; remark: listed apart in the source
[11] = The drug is tested on Z-002 corresponding to rabbit gut metagenome with ENA study accession number: PRJEB37062 and ENA sample accession number: ERS12561802 for biotransformation under anaerobic condition. The drug concentrations were measured over 9 timepoints collected between 0 and 24 hours of incubation by liquid-chromatography-coupled mass spectrometry (LC–MS); settings: 2 µM
[12] = human gut metagenome, 24 h, 2 µM; remark: listed apart in the source
[13] = The drug is tested on Z-020 corresponding to rabbit gut metagenome with ENA study accession number: PRJEB37062 and ENA sample accession number: ERS12561819 for biotransformation under anaerobic condition. The drug concentrations were measured over 9 timepoints collected between 0 and 24 hours of incubation by liquid-chromatography-coupled mass spectrometry (LC–MS); settings: 2 µM
[14] = The drug is tested on Z-027 corresponding to metagenome with ENA study accession number: PRJEB37062 and ENA sample accession number: ERS12561826 for biotransformation under anaerobic condition. The drug concentrations were measured over 9 timepoints collected between 0 and 24 hours of incubation by liquid-chromatography-coupled mass spectrometry (LC–MS); settings: 2 µM
[15] = The drug is tested on Z-005 corresponding to metagenome with ENA study accession number: PRJEB37062 and ENA sample accession number: ERS12561805 for biotransformation under anaerobic condition. The drug concentrations were measured over 9 timepoints collected between 0 and 24 hours of incubation by liquid-chromatography-coupled mass spectrometry (LC–MS); settings: 2 µM
[16] = The drug is tested on WLS-007 corresponding to human gut metagenome with ENA study accession number: PRJEB37062 and ENA sample accession number: ERS12561742 for biotransformation under anaerobic condition. The drug concentrations were measured over 9 timepoints collected between 0 and 24 hours of incubation by liquid-chromatography-coupled mass spectrometry (LC–MS); settings: 2 µM
[17] = human gut metagenome, 24 h, 2 µM; remark: listed apart in the source
[18] = The drug is tested on Z-030 corresponding to mouse gut metagenome with ENA study accession number: PRJEB37062 and ENA sample accession number: ERS12561829 for biotransformation under anaerobic condition. The drug concentrations were measured over 9 timepoints collected between 0 and 24 hours of incubation by liquid-chromatography-coupled mass spectrometry (LC–MS); settings: 2 µM
[19] = The drug is tested on WLS-073 corresponding to human gut metagenome with ENA study accession number: PRJEB37062 and ENA sample accession number: ERS12561749 for biotransformation under anaerobic condition. The drug concentrations were measured over 9 timepoints collected between 0 and 24 hours of incubation by liquid-chromatography-coupled mass spectrometry (LC–MS); settings: 2 µM
[20] = human gut metagenome, 24 h, 2 µM; remark: listed apart in the source
Further: call rule not given here.

With `CN(C)C(=O)C(CCN1CCC(O)(c2ccc(Cl)cc2)CC1)(c1ccccc1)c1ccccc1` [LOPERAMIDE] as the molecule, how does the “Bacterial Biotransformation” value [1] read?
The value was “Compound metabolized”.

And the “Bacterial Biotransformation” value [2]?
Its value is “Compound metabolized”.

And the “Bacterial Biotransformation” value [3]?
The value was “Compound metabolized”.

And the “Bacterial Biotransformation” value [4]?
The value was “Compound metabolized”.

And the “Bacterial Biotransformation” value [5]?
Its value is “Compound metabolized”.

And the “Bacterial Biotransformation” value [6]?
The value was “Compound metabolized”.

And the “Bacterial Biotransformation” value [7]?
Its value is “Compound NOT metabolized”.

What about the “Bacterial Biotransformation” value [8] of the same molecule?
Its value is “Compound metabolized”.

What about the “Bacterial Biotransformation” value [9] of the same molecule?
Its value is “Compound NOT metabolized”.

And the “Bacterial Biotransformation” value [10]?
Its value is “Compound metabolized”.

What about the “Bacterial Biotransformation” value [11] of the same molecule?
Its value is “Compound metabolized”.

And the “Bacterial Biotransformation” value [12]?
Its value is “Compound NOT metabolized”.

And the “Bacterial Biotransformation” value [13]?
The value was “Compound metabolized”.

What about the “Bacterial Biotransformation” value [14] of the same molecule?
Its value is “Compound metabolized”.

And the “Bacterial Biotransformation” value [15]?
The value was “Compound metabolized”.

And the “Bacterial Biotransformation” value [16]?
Its value is “Compound metabolized”.

What about the “Bacterial Biotransformation” value [17] of the same molecule?
Its value is “Compound metabolized”.

What about the “Bacterial Biotransformation” value [18] of the same molecule?
Its value is “Compound NOT metabolized”.

What about the “Bacterial Biotransformation” value [19] of the same molecule?
The value was “Compound NOT metabolized”.

What about the “Bacterial Biotransformation” value [20] of the same molecule?
The value was “Compound metabolized”.

Which results are given for `CCCCc1nc(Cl)c(CO)n1Cc1ccc(-c2ccccc2-c2nn[nH]n2)cc1` [LOSARTAN]?
Bacterial Biotransformation [1]: Compound metabolized; Bacterial Biotransformation [2]: Compound metabolized; Bacterial Biotransformation [3]: Compound NOT metabolized; Bacterial Biotransformation [4]: Compound metabolized; Bacterial Biotransformation [5]: Compound metabolized; Bacterial Biotransformation [6]: Compound NOT metabolized; Bacterial Biotransformation [7]: Compound NOT metabolized; Bacterial Biotransformation [8]: Compound metabolized; Bacterial Biotransformation [9]: Compound NOT metabolized; Bacterial Biotransformation [10]: Compound metabolized; Bacterial Biotransformation [11]: Compound NOT metabolized; Bacterial Biotransformation [12]: Compound NOT metabolized; Bacterial Biotransformation [13]: Compound NOT metabolized; Bacterial Biotransformation [14]: Compound NOT metabolized; Bacterial Biotransformation [15]: Compound NOT metabolized; Bacterial Biotransformation [16]: Compound metabolized; Bacterial Biotransformation [17]: Compound metabolized; Bacterial Biotransformation [18]: Compound NOT metabolized; Bacterial Biotransformation [19]: Compound NOT metabolized; Bacterial Biotransformation [20]: Compound metabolized

With `COC(=O)Nc1nc2ccc(C(=O)c3ccccc3)cc2[nH]1` [MEBENDAZOLE] as the molecule, how does the “Bacterial Biotransformation” value [1] read?
Its value is “Compound metabolized”.

What about the “Bacterial Biotransformation” value [2] of the same molecule?
The value was “Compound NOT metabolized”.

What about the “Bacterial Biotransformation” value [3] of the same molecule?
The value was “Compound metabolized”.

And the “Bacterial Biotransformation” value [4]?
The value was “Compound metabolized”.

What about the “Bacterial Biotransformation” value [5] of the same molecule?
The value was “Compound NOT metabolized”.

And the “Bacterial Biotransformation” value [6]?
The value was “Compound metabolized”.

What about the “Bacterial Biotransformation” value [7] of the same molecule?
The value was “Compound NOT metabolized”.

What about the “Bacterial Biotransformation” value [8] of the same molecule?
The value was “Compound metabolized”.

What about the “Bacterial Biotransformation” value [9] of the same molecule?
Its value is “Compound metabolized”.

And the “Bacterial Biotransformation” value [10]?
Its value is “Compound metabolized”.

What about the “Bacterial Biotransformation” value [11] of the same molecule?
The value was “Compound metabolized”.

And the “Bacterial Biotransformation” value [12]?
The value was “Compound NOT metabolized”.

What about the “Bacterial Biotransformation” value [13] of the same molecule?
Its value is “Compound metabolized”.

What about the “Bacterial Biotransformation” value [14] of the same molecule?
Its value is “Compound NOT metabolized”.

What about the “Bacterial Biotransformation” value [15] of the same molecule?
The value was “Compound metabolized”.

And the “Bacterial Biotransformation” value [16]?
Its value is “Compound metabolized”.

And the “Bacterial Biotransformation” value [17]?
Its value is “Compound metabolized”.

And the “Bacterial Biotransformation” value [18]?
The value was “Compound NOT metabolized”.

What about the “Bacterial Biotransformation” value [19] of the same molecule?
Its value is “Compound metabolized”.

What about the “Bacterial Biotransformation” value [20] of the same molecule?
Its value is “Compound metabolized”.

Which “Bacterial Biotransformation” value [1] does the source give for `COc1ccccc1OCC(O)COC(N)=O` (stereo not given) [METHOCARBAMOL] here?
The value was “Compound NOT metabolized”.

What about the “Bacterial Biotransformation” value [2] of the same molecule?
The value was “Compound NOT metabolized”.

And the “Bacterial Biotransformation” value [3]?
Its value is “Compound NOT metabolized”.

What about the “Bacterial Biotransformation” value [4] of the same molecule?
Its value is “Compound NOT metabolized”.

What about the “Bacterial Biotransformation” value [5] of the same molecule?
Its value is “Compound NOT metabolized”.

What about the “Bacterial Biotransformation” value [6] of the same molecule?
Its value is “Compound NOT metabolized”.

And the “Bacterial Biotransformation” value [7]?
The value was “Compound NOT metabolized”.

And the “Bacterial Biotransformation” value [8]?
The value was “Compound NOT metabolized”.

And the “Bacterial Biotransformation” value [9]?
The value was “Compound NOT metabolized”.

What about the “Bacterial Biotransformation” value [10] of the same molecule?
Its value is “Compound NOT metabolized”.

And the “Bacterial Biotransformation” value [11]?
The value was “Compound NOT metabolized”.

And the “Bacterial Biotransformation” value [12]?
Its value is “Compound NOT metabolized”.

And the “Bacterial Biotransformation” value [13]?
Its value is “Compound NOT metabolized”.

And the “Bacterial Biotransformation” value [14]?
The value was “Compound NOT metabolized”.

And the “Bacterial Biotransformation” value [15]?
The value was “Compound NOT metabolized”.

What about the “Bacterial Biotransformation” value [16] of the same molecule?
The value was “Compound NOT metabolized”.

And the “Bacterial Biotransformation” value [17]?
Its value is “Compound NOT metabolized”.

What about the “Bacterial Biotransformation” value [18] of the same molecule?
The value was “Compound NOT metabolized”.

And the “Bacterial Biotransformation” value [19]?
The value was “Compound NOT metabolized”.

And the “Bacterial Biotransformation” value [20]?
Its value is “Compound NOT metabolized”.

With `CC[C@@H](CO)NC(=O)[C@@H]1C=C2c3cccc4c3c(cn4C)C[C@H]2N(C)C1.O=C(O)/C=C\C(=O)O` [METHYSERGIDE MALEATE] as the molecule, how does the “Bacterial Biotransformation” value [1] read?
Its value is “Compound metabolized”.

And the “Bacterial Biotransformation” value [2]?
Its value is “Compound NOT metabolized”.

What about the “Bacterial Biotransformation” value [3] of the same molecule?
The value was “Compound metabolized”.

What about the “Bacterial Biotransformation” value [4] of the same molecule?
Its value is “Compound NOT metabolized”.

And the “Bacterial Biotransformation” value [5]?
Its value is “Compound NOT metabolized”.

And the “Bacterial Biotransformation” value [6]?
The value was “Compound NOT metabolized”.

What about the “Bacterial Biotransformation” value [7] of the same molecule?
Its value is “Compound NOT metabolized”.

What about the “Bacterial Biotransformation” value [8] of the same molecule?
The value was “Compound NOT metabolized”.

And the “Bacterial Biotransformation” value [9]?
Its value is “Compound NOT metabolized”.

And the “Bacterial Biotransformation” value [10]?
Its value is “Compound NOT metabolized”.

What about the “Bacterial Biotransformation” value [11] of the same molecule?
Its value is “Compound NOT metabolized”.

What about the “Bacterial Biotransformation” value [12] of the same molecule?
Its value is “Compound NOT metabolized”.

And the “Bacterial Biotransformation” value [13]?
The value was “Compound NOT metabolized”.

And the “Bacterial Biotransformation” value [14]?
The value was “Compound NOT metabolized”.

And the “Bacterial Biotransformation” value [15]?
Its value is “Compound NOT metabolized”.

And the “Bacterial Biotransformation” value [16]?
Its value is “Compound NOT metabolized”.

What about the “Bacterial Biotransformation” value [17] of the same molecule?
The value was “Compound NOT metabolized”.

What about the “Bacterial Biotransformation” value [18] of the same molecule?
Its value is “Compound NOT metabolized”.

What about the “Bacterial Biotransformation” value [19] of the same molecule?
Its value is “Compound NOT metabolized”.

And the “Bacterial Biotransformation” value [20]?
Its value is “Compound NOT metabolized”.
